In publication PMC7996170, “Novel Method for Quantifying AhR-Ligand Binding Affinities Using Microscale Thermophoresis” (Biosensors, 2021):
Read-outs that look alike come from different tables or passages of the source.

Legend:
[1] = cited from earlier work
[2] = target: T1, recombinant AhR-ARNT complex (Homo sapiens, UniProt P35869); assay: Competition radioligand binding assay ([3H]TCDD displacement) on purified recombinant AhR-ARNT; conditions: for competition with [3H]TCDD (in words): 4 nM [3H]TCDD, increasing concentrations of unlabeled competitor
T1 construct: encompassing the bHLH-PAS A-PAS B domains (amino acid residues 23 to 475); His6 (N, cleaved yes); FleB (Yersinia flagellin subunit, residues 54 to 332, UniProt A1JSQ5) expression tag followed by HRV 3C site (N, cleaved yes); made in house; host or cells: E. coli BL21(DE3)
Description: Radioligand binding assays were performed as previously established. Briefly, for saturation experiments, 0.5 mg/mL of purified AhR-ARNT or ARNT protein was diluted in MDEG buffer (25 mM MOPS, 1 mM DTT, 1 mM EDTA, 10% glycerol, 20 mM molybdate, pH 7.5) and incubated with increasing concentrations of radioactively labeled [^3H]TCDD tracer. Reactions were supplemented with liver lysate of AhR-deficient mice (AhR^-/-, C57BL/6 background) to a final protein concentration of 5 mg/mL to reduce unspecific binding and adsorption of the tracer to plastic surfaces. Liver lysates were prepared in MDEG buffer by homogenization using the gentleMacs Dissociator (Miltenyi Biotec), followed by ultracentrifugation at 100,000× g and 4 °C for 1 h. Cytosolic fractions were collected, protein concentration determined by Bradford reaction (Protein Assay Kit, Pierce), and further diluted to a final protein concentration of 5 mg/mL in MDEG buffer. […] Subsequently, 30 μL of a Norit A charcoal suspension (100 mg/mL equilibrated in MDEG buffer) was added into each 200 µL of the reaction mixture. Samples were kept on ice for 15 min and centrifuged for another 15 min at 25,000× g and 4 °C. Following this, 150 μL of the supernatant was carefully transferred and radioactivity was measured in a liquid scintillation counter (Tri-Carb 3110TR, PerkinElmer). All samples were measured in triplicate. For competition assays, a constant concentration of [^3H]TCDD (4 nM final) was used, to which a serial dilution of unlabeled competitor molecule dissolved in DMSO was added in excess. All subsequent steps were carried out as described above. The specific binding was defined as the difference of radioactivity between the reactions supplemented with the recombinant protein and AhR-deficient (Ahr^-/-) mouse lysates. Analysis of the data and calculation of the binding constants Kd and receptor density Bmax were performed with GraphPad Prism 7 using a nonlinear regression fitting a saturation binding isotherm. For competition studies, the IC50 values were obtained by fitting a one-site competitive binding equation to the experimental data. Ki values were derived from IC50 using the Cheng–Prusoff equation [19].

[3] = target: T2, mARNT (Mus musculus, UniProt P53762, C256S/DEL274-297/DEL351-358); assay: Label-free MST on mARNT alone; type: binding; conditions: Figure S3
T2 construct: Mouse ARNT (residues 85–465) was expressed as N-terminal His6-fusion protein; His6 (N); made in house; host or cells: E. coli BL21(DE3)
Description: Microscale thermophoresis (MST) experiments were performed according to the manufacturer’s instructions (NanoTemper Technologies GmbH) using a Monolith NT.LabelFree. In brief, 250 nM of purified AhR-ARNT proteins were diluted in assay buffer (20 mM HEPES pH 8.0, 200 mM NaCl, 5% glycerol, 5 mM DTT, and 0.1% Pluronic F-127) and incubated for 5 min, in the presence of a serial dilution of the different ligands (ligand solubilized in DMSO at a final constant concentration of 2%). After incubation, samples were filled into NT.LabelFree Zero Background MST Premium coated capillaries (NanoTemper Technologies GmbH) and measurements were taken at a constant temperature of 22 °C. MST traces were collected with an LED excitation power of 20% and an MST laser power of 20% and 40%. The MO.Control Analysis software (NanoTemper) was used to analyze the interaction affinity and the dissociation constant (Kd) for each ligand using the Kd fit model. In short, changes in the thermophoretic movement were depicted as changes in the normalized fluorescence ratio before and after heating (ΔFnorm [‰]) and plotted as a function of the ligand concentration. The resulting binding curve is fitted by the software using the best fitting method to derive binding constants and thus the Kd.

[4] = target: T1, recombinant AhR-ARNT complex; assay: Label-free microscale thermophoresis (MST) ligand binding
[5] = system: murine AhR; conditions: higher affinity of murine AhR than human AhR; cited from earlier work
[6] = target: endogenous hAhR; set-up: method as in PMID 2848187; conditions: endogenous hAhR in hepatocyte cell lysates; read-out: equilibrium dissociation constant (Kd); cited from earlier work
[7] = target: T3, purified AhR-ARNT complex (recombinant hAhR23–475 with mARNT85–465) (Homo sapiens, UniProt P35869); assay: Radioligand saturation binding assay with [3H]TCDD on purified recombinant AhR-ARNT; conditions: 4 °C, 24 h
T3 construct: encompassing the bHLH-PAS A-PAS B domains (amino acid residues 23 to 475); His6 (N, cleaved yes); FleB (Yersinia flagellin subunit, residues 54 to 332, UniProt A1JSQ5) expression tag followed by HRV 3C site (N, cleaved yes); made in house; host or cells: E. coli BL21(DE3)
Description: Radioligand binding assays were performed as previously established. Briefly, for saturation experiments, 0.5 mg/mL of purified AhR-ARNT or ARNT protein was diluted in MDEG buffer (25 mM MOPS, 1 mM DTT, 1 mM EDTA, 10% glycerol, 20 mM molybdate, pH 7.5) and incubated with increasing concentrations of radioactively labeled [^3H]TCDD tracer. Reactions were supplemented with liver lysate of AhR-deficient mice (AhR^-/-, C57BL/6 background) to a final protein concentration of 5 mg/mL to reduce unspecific binding and adsorption of the tracer to plastic surfaces. Liver lysates were prepared in MDEG buffer by homogenization using the gentleMacs Dissociator (Miltenyi Biotec), followed by ultracentrifugation at 100,000× g and 4 °C for 1 h. Cytosolic fractions were collected, protein concentration determined by Bradford reaction (Protein Assay Kit, Pierce), and further diluted to a final protein concentration of 5 mg/mL in MDEG buffer. […] Following this, 150 μL of the supernatant was carefully transferred and radioactivity was measured in a liquid scintillation counter (Tri-Carb 3110TR, PerkinElmer). All samples were measured in triplicate. […] The specific binding was defined as the difference of radioactivity between the reactions supplemented with the recombinant protein and AhR-deficient (Ahr^-/-) mouse lysates. […]

T1 sequence (P35869 23-475): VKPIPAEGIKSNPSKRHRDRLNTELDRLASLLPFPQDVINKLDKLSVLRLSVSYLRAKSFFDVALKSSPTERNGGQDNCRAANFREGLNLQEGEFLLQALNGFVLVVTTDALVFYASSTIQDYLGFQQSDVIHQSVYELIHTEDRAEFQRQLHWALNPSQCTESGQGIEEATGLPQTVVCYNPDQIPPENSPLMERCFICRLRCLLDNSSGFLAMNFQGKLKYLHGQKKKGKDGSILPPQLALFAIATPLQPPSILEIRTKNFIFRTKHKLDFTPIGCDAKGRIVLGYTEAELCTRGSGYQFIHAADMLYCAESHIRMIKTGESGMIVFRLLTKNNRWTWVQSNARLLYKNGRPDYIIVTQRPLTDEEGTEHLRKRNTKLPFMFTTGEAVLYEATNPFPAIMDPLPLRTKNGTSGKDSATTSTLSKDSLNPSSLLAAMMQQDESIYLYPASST
T1 sequence (P53762 with tags, fused parts or gaps C256S/DEL274-297/DEL351-358 partner): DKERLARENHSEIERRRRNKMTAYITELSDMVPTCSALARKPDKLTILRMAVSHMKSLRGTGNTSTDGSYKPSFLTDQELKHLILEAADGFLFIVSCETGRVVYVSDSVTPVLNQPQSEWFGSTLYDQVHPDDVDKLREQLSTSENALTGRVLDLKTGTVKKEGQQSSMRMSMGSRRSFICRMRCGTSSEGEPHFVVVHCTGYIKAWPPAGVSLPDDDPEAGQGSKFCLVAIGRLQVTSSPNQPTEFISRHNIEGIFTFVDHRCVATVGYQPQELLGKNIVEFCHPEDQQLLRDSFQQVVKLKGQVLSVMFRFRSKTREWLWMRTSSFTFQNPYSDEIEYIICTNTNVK
T3 sequence (P35869 23-475): as the sequence (P35869 23-475) above
T3 sequence (P53762 with tags, fused parts or gaps C256S/DEL274-297/DEL351-358 partner): as the sequence (P53762 with tags, fused parts or gaps C256S/DEL274-297/DEL351-358 partner) above
T2 sequence (P53762 with tags, fused parts or gaps C256S/DEL274-297/DEL351-358): as the sequence (P53762 with tags, fused parts or gaps C256S/DEL274-297/DEL351-358 partner) above

O=Cc1c2[nH]c3ccccc3c2cc2[nH]c3ccccc3c12 [FICZ, 6-Formylindolo [3,2-b] carbazole]
stability in aqueous solution (in words) ([1]; tryptophan group): high instability | competition with [3H]TCDD (in words) ([2]; 24 h): failed to see competition

Clc1cc2c(cc1Cl)Oc1cc(Cl)c(Cl)cc1O2 [TCDD, 2,3,7,8-Tetrachlorodibenzo-p-dioxin]
solubility in water (in words) [1]: insolubility in water | ligand-induced differences in MST traces with mARNT alone (in words) [3]: not when mARNT was used alone | competition with [3H]TCDD (in words) ([2]; 24 h): only an initial competition | displacement of [3H]TCDD from AhR-ARNT by unlabeled competitor (in words) ([2]; increasing protein, constant [3H]TCDD, 48 h, Figure S2): displacement by unlabeled dioxin detectable | Kd [4]: 139 ± 99 nM | binding affinity of murine AhR relative to human AhR [5]: ~10 fold | Kd [6]: 2.7 to 4.2 nM | maximal binding capacity (Bmax) ([7]; [3H]TCDD saturation binding): 60.3 ± 17.3 pmoles/mg protein | Kd ([7]; [3H]TCDD tracer, 0.5 mg/mL protein, AhR-/- mouse liver lysate added): 39 ± 20 nM

Cc1ccccc1N=Nc1ccc(NC(=O)c2ccnn2C)c(C)c1 [CH-223191, 2-Methyl-2H-pyrazole-3-carboxylic acid (2-methyl-4-o-tolylazo-phenyl)-amide]
Ki ([2]; displacement of 4 nM [3H]TCDD, 24 h, 4 °C, read-out: Ki (from IC50 by Cheng–Prusoff)): 12200 nM | Kd ([4]; 250 nM AhR-ARNT, 2% DMSO, 22 °C, label-free, read-out: Kd (MST)): 496 ± 82 nM

Oc1cccc2nc3ccccc3nc12 [1-HP, 1-Hydroxyphenazine]
Ki [2]: 9200 nM | Kd [4]: 943 ± 176 nM
